Data on one molecule can be found in patent publication US20140039047A1, “METHODS FOR REGULATING SIRTUIN GENE EXPRESSION” (priority 2011, published 2014).

What all share (assay): Quantitative PCR of sirtuin gene expression in canine adipocytes treated with Equol
Common to all, as to format: cell-based
What all share (conditions): 24 hours, terminally differentiated canine adipocytes, normalized to cyclophilin A (PPIA), n=3

For one experiment, the system named is SIRT1. The protocol:
(§1) Treatment: Terminally differentiated canine adipocytes were exposed to 200, 25, and 0 uM Equol for 24 hours. Cells were collected for RNA isolation.
(§2) RNA Isolation: Treatment cell samples were vortexed and homogenized using a Quiashredder (Qiagen, Valencia, Calif.) column according to manufacturer's directions. The homogenized lysate was collected and 1 equal volume of 64% ethanol was added to it. This mixture was then applied to an RNAqueous™ filter cartridge, (Ambion Inc., Austin, Tex.) 700 uL at a time, and centrifuged for one minute at 10,000 rpm. The cartridge was washed using 700 uL wash solution #1 and 500 uL wash solution #⅔ with centrifugation at 10,000 rpm for one minute for each wash. The filter cartridge was dried by centrifugation (10,000 rpm) for one minute. RNA was eluted three times by centrifugation (as above) using 30 uL aliquots of 70-80° C. elution solution. The resulting RNA was DNAse-treated and quantitated in a Beckman DU 640B spectrophotometer (Beckman Coulter, Inc., Brea, Calif.) at 260 nm. Additionally, quantity and quality were assessed using a bioanalyzer (Agilent, Santa Clara, Calif.) according to manufacturer's directions.
(§3) Quantitative PCR: All samples were run singularly against each primer/probe set to determine what standard curve(s) should be used. Standard curves were generated using serial dilutions of RNA from experimental samples with the lowest CT (cycle threshold) for a given target. 1-2 samples were re-reverse transcribed and a 1:5 serial dilution were used as the standard curve for a given target. Targets run included sirtuin −1, −2, −3 and −6. Values were normalized to cyclophilin A (PPIA) levels as determined by quantitative PCR. Inductions were calculated from each of the lowest sample's normalized value. Each set was run with n=3.

The subject of another experiment is SIRT2. The protocol:
as §1, §2, §3

The test system of another experiment is SIRT3. The method, then:
as §1, §2, §3

The test system of another experiment is SIRT6. The protocol:
as §1, §2, §3

Consider `Oc1ccc([C@H]2COc3cc(O)ccc3C2)cc1` [Equol], for which the “Expression of SIRT1 gene (relative expression)” value was 1.17 with SIRT1 (25 uM Equol) and 1.80 in the experiment with SIRT1 (200 uM Equol). Further, the figures for the “Expression of SIRT2 gene (relative expression)” value in the experiment with SIRT2 (25 uM Equol) and with SIRT2 (200 uM Equol) were 1.22 and 2.37, respectively. The results for the “Expression of SIRT3 gene (relative expression)” value in the experiment with SIRT3 (25 uM Equol) and with SIRT3 (200 uM Equol) were 10.86 and 17.21, respectively. The “Expression of SIRT6 gene (relative expression)” value with SIRT6 (25 uM Equol) worked out at 1.10; in the experiment on SIRT6 (200 uM Equol) it was 1.23.
